Values quoted from earlier work in paper PMC4629263 (Acta Pharmaceutica Sinica. B, 2015).

Tests used:
[1] = mice
[2] = room temperature

Row | SMILES | pKa | LD50 [1] [mg/kg] | Stability in aqueous solution [2]
1 | COc1ccc2c(c1O)-c1c(OC)c(OC)cc3c1[C@H](C2)N(C)CC3 [ICD, Isocorydine] | 7.16 | 32.2 | 
2 | COc1cc(N)c2c(c1O)-c1c(OC)c(OC)cc3c1[C@H](C2)N(C)CC3 [8-amino-isocorydine] |  |  | not stable
